# Molecular target: human α-thrombin (Homo sapiens, UniProt P00734)
# Experiment: Sub-library screen for active and permeable cyclic peptides (PAMPA plus thrombin inhibition)
# Type: biochemical
# Conditions: crude, slopes normalized to DMSO; for Residual thrombin activity: Top sample: PAMPA acceptor well after 14 h, 5 μM donor; for Residual thrombin activity: Equilibrated sample: donor sample diluted to theoretical equilibrium (1 μM in assay)
# How it was run: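 Acylated cyclic peptides at 5 μM in PBS pH 7.4 with 5% DMSO were run through PAMPA for 14 h at room temperature. Acceptor wells and a diluted donor sample at 3 μM, representing maximum permeability, were preincubated 10 min with human α-thrombin (6 nM stock). Z-Gly-Gly-Arg-AMC (150 μM stock) fluorescence was then read for 30 min at 25 °C, and inhibition was taken against a no-peptide control.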
SMILES,Residual thrombin activity: Top sample,Residual thrombin activity: Equilibrated sample
O=C1C[C@H]2CCCN2C(=O)[C@@H](Cc2ccccc2)NC(=O)[C@@H](NC(=O)c2ccc(Cl)s2)CCSC/C=C/CSCCN1 [C2-X31-L4],98.4,104.3
O=C1C[C@H]2CCCN2C(=O)[C@@H](Cc2ccccc2)NC(=O)[C@@H](NC(=O)c2ccc(Cl)s2)CCSCc2cccc(c2)CSCCN1 [C2-X31-L5],105.0,96.6
O=C1C[C@H]2CCCN2C(=O)[C@@H](Cc2ccccc2)NC(=O)[C@@H](NC(=O)c2ccc(Cl)s2)CCSCc2ccccc2CSCCN1 [C2-X31-L6],92.4,88.8
O=C1CSCCNC(=O)C[C@H]2CCCN2C(=O)[C@@H](Cc2ccccc2)NC(=O)[C@@H](NC(=O)c2ccc(Cl)s2)CCSC1 [C2-X31-L7],102.6,101.7
CN1C(=O)[C@@H](NC(=O)c2ccc(Cl)s2)CCSCc2cccc(n2)CSCCNC(=O)C[C@H]2CCCN2C(=O)[C@@H]1Cc1ccccc1 [C2-X32-L1],92.7,101.7
CN1C(=O)[C@@H](NC(=O)c2ccc(Cl)s2)CCSCCS(=O)(=O)CCSCCNC(=O)C[C@H]2CCCN2C(=O)[C@@H]1Cc1ccccc1 [C2-X32-L2],93.7,100.8
CN1C(=O)[C@@H](NC(=O)c2ccc(Cl)s2)CCSCc2ccc(cc2)CSCCNC(=O)C[C@H]2CCCN2C(=O)[C@@H]1Cc1ccccc1 [C2-X32-L3],97.8,96.9
CN1C(=O)[C@@H](NC(=O)c2ccc(Cl)s2)CCSC/C=C/CSCCNC(=O)C[C@H]2CCCN2C(=O)[C@@H]1Cc1ccccc1 [C2-X32-L4],99.0,101.4
CN1C(=O)[C@@H](NC(=O)c2ccc(Cl)s2)CCSCc2cccc(c2)CSCCNC(=O)C[C@H]2CCCN2C(=O)[C@@H]1Cc1ccccc1 [C2-X32-L5],104.7,100.8
CN1C(=O)[C@@H](NC(=O)c2ccc(Cl)s2)CCSCc2ccccc2CSCCNC(=O)C[C@H]2CCCN2C(=O)[C@@H]1Cc1ccccc1 [C2-X32-L6],94.2,95.9
CN1C(=O)[C@@H](NC(=O)c2ccc(Cl)s2)CCSCC(=O)CSCCNC(=O)C[C@H]2CCCN2C(=O)[C@@H]1Cc1ccccc1 [C2-X32-L7],101.9,101.7
COc1ccc(C[C@@H]2NC(=O)[C@@H](NC(=O)c3ccc(Cl)s3)CCSCc3cccc(n3)CSCCNC(=O)C[C@H]3CCCN3C2=O)cc1 [C2-X33-L1],95.4,94.0
COc1ccc(C[C@@H]2NC(=O)[C@@H](NC(=O)c3ccc(Cl)s3)CCSCCS(=O)(=O)CCSCCNC(=O)C[C@H]3CCCN3C2=O)cc1 [C2-X33-L2],98.8,98.9
COc1ccc(C[C@@H]2NC(=O)[C@@H](NC(=O)c3ccc(Cl)s3)CCSCc3ccc(cc3)CSCCNC(=O)C[C@H]3CCCN3C2=O)cc1 [C2-X33-L3],100.8,99.6
COc1ccc(C[C@@H]2NC(=O)[C@@H](NC(=O)c3ccc(Cl)s3)CCSC/C=C/CSCCNC(=O)C[C@H]3CCCN3C2=O)cc1 [C2-X33-L4],100.6,93.7
COc1ccc(C[C@@H]2NC(=O)[C@@H](NC(=O)c3ccc(Cl)s3)CCSCc3cccc(c3)CSCCNC(=O)C[C@H]3CCCN3C2=O)cc1 [C2-X33-L5],104.9,49.9
COc1ccc(C[C@@H]2NC(=O)[C@@H](NC(=O)c3ccc(Cl)s3)CCSCc3ccccc3CSCCNC(=O)C[C@H]3CCCN3C2=O)cc1 [C2-X33-L6],92.7,95.5
COc1ccc(C[C@@H]2NC(=O)[C@@H](NC(=O)c3ccc(Cl)s3)CCSCC(=O)CSCCNC(=O)C[C@H]3CCCN3C2=O)cc1 [C2-X33-L7],102.7,99.9
O=C1C[C@H]2CCCN2C(=O)[C@H](Cc2ccc(Cl)cc2)NC(=O)[C@@H](NC(=O)c2ccc(Cl)s2)CCSCc2cccc(n2)CSCCN1 [C2-X34-L1],87.1,93.9
O=C1C[C@H]2CCCN2C(=O)[C@H](Cc2ccc(Cl)cc2)NC(=O)[C@@H](NC(=O)c2ccc(Cl)s2)CCSCCS(=O)(=O)CCSCCN1 [C2-X34-L2],99.3,99.5
O=C1C[C@H]2CCCN2C(=O)[C@H](Cc2ccc(Cl)cc2)NC(=O)[C@@H](NC(=O)c2ccc(Cl)s2)CCSCc2ccc(cc2)CSCCN1 [C2-X34-L3],99.4,99.1
O=C1C[C@H]2CCCN2C(=O)[C@H](Cc2ccc(Cl)cc2)NC(=O)[C@@H](NC(=O)c2ccc(Cl)s2)CCSC/C=C/CSCCN1 [C2-X34-L4],98.6,98.5
O=C1C[C@H]2CCCN2C(=O)[C@H](Cc2ccc(Cl)cc2)NC(=O)[C@@H](NC(=O)c2ccc(Cl)s2)CCSCc2cccc(c2)CSCCN1 [C2-X34-L5],106.3,106.4
O=C1C[C@H]2CCCN2C(=O)[C@H](Cc2ccc(Cl)cc2)NC(=O)[C@@H](NC(=O)c2ccc(Cl)s2)CCSCc2ccccc2CSCCN1 [C2-X34-L6],93.6,95.7
O=C1CSCCNC(=O)C[C@H]2CCCN2C(=O)[C@H](Cc2ccc(Cl)cc2)NC(=O)[C@@H](NC(=O)c2ccc(Cl)s2)CCSC1 [C2-X34-L7],104.6,101.4
N#Cc1ccc(C[C@@H]2NC(=O)[C@@H](NC(=O)c3ccc(Cl)s3)CCSCc3cccc(n3)CSCCNC(=O)C[C@H]3CCCN3C2=O)cc1 [C2-X35-L1],95.8,96.1
N#Cc1ccc(C[C@@H]2NC(=O)[C@@H](NC(=O)c3ccc(Cl)s3)CCSCCS(=O)(=O)CCSCCNC(=O)C[C@H]3CCCN3C2=O)cc1 [C2-X35-L2],102.9,100.1
N#Cc1ccc(C[C@@H]2NC(=O)[C@@H](NC(=O)c3ccc(Cl)s3)CCSCc3ccc(cc3)CSCCNC(=O)C[C@H]3CCCN3C2=O)cc1 [C2-X35-L3],101.8,100.4
N#Cc1ccc(C[C@@H]2NC(=O)[C@@H](NC(=O)c3ccc(Cl)s3)CCSC/C=C/CSCCNC(=O)C[C@H]3CCCN3C2=O)cc1 [C2-X35-L4],100.5,100.3
N#Cc1ccc(C[C@@H]2NC(=O)[C@@H](NC(=O)c3ccc(Cl)s3)CCSCc3cccc(c3)CSCCNC(=O)C[C@H]3CCCN3C2=O)cc1 [C2-X35-L5],106.2,101.3

# From paper PMC11062899, “De novo development of small cyclic peptides that are orally bioavailable” (Nature Chemical Biology, 2023)
